Source: publication PMC4774911, “Biochemical Screening of Five Protein Kinases from Plasmodium falciparum against 14,000 Cell-Active Compounds” (PLoS ONE, 2016)
Where “and” joins values, the source holds several entries; their conditions need not be identical. Equal values may be shown once.

Legend:
Experiment in all cases: biochemical
Design in all cases: endogenous in cells; host or cells: K562 cell extract; species or system K562 (extract); replicate k of n = 2 (each experiment ID is one independent experiment; two experiment IDs per compound)
Details in all cases: read-out: KDapp
[1] = biological target: T1, MAP3K6 (Homo sapiens, UniProt O95382)
T1 sequence (O95382 1-1288): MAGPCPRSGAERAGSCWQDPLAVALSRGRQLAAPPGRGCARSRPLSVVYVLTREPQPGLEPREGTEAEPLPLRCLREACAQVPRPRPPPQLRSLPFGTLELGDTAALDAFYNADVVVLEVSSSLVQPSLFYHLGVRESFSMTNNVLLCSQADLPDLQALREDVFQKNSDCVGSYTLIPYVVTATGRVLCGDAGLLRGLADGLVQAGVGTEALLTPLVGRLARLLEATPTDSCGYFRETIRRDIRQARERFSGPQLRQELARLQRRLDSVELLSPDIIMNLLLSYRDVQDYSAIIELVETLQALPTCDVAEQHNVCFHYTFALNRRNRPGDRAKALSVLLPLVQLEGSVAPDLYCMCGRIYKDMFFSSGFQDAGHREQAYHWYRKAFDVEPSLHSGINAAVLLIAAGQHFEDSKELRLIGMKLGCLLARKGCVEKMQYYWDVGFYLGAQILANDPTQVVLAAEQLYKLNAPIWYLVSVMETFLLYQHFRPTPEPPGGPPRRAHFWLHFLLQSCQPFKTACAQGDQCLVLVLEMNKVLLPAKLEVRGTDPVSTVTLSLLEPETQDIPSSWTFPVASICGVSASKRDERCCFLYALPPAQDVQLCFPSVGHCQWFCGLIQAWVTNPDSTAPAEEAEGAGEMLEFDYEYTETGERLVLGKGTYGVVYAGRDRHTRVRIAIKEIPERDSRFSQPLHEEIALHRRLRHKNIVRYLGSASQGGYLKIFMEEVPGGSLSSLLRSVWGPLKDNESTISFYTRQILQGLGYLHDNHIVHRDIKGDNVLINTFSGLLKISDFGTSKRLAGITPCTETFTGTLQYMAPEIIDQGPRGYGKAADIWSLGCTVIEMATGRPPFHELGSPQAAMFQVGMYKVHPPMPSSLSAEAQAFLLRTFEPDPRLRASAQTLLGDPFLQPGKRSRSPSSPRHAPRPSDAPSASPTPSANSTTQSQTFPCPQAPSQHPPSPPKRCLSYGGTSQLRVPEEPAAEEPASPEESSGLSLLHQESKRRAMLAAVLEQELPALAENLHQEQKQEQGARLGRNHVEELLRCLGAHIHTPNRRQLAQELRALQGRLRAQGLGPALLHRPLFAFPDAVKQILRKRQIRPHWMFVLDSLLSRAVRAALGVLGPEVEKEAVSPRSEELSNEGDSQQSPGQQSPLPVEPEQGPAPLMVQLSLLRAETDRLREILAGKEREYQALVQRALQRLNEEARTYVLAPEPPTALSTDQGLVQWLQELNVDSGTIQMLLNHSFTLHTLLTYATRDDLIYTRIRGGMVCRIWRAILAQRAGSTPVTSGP

[2] = biological target: STK38L (Homo sapiens, UniProt Q9Y2H1)
STK38L, sequence (Q9Y2H1 whole entry): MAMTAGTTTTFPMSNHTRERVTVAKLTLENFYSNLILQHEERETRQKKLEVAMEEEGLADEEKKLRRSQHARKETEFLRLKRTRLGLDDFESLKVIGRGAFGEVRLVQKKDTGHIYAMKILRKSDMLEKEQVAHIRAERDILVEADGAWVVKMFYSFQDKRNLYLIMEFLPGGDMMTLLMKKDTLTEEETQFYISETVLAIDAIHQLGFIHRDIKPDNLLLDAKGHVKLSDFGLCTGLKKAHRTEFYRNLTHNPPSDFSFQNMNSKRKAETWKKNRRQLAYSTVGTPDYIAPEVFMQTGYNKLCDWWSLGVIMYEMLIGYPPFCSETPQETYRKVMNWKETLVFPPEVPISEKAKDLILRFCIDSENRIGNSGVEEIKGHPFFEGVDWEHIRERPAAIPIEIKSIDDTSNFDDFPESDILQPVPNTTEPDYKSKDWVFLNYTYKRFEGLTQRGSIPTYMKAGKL

[3] = biological target: T2, ULK3 (Homo sapiens, UniProt Q6PHR2)
T2 sequence (Q6PHR2 1-472): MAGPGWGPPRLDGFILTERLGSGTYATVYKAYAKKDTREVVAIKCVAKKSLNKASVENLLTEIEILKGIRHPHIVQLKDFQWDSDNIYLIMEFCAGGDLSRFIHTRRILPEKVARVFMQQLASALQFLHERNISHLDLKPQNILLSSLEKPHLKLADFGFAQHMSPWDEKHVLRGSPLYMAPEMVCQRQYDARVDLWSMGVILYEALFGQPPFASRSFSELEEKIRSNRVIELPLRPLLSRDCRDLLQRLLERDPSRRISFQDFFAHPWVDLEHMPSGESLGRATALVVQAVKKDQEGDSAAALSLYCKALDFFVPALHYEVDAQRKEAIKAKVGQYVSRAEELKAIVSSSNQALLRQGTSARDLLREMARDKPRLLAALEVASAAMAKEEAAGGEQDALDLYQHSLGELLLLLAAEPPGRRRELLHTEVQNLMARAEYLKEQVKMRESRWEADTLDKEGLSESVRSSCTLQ

CN1CCN(c2ccc(Nc3ncc(C#N)c(Nc4ccccc4C(N)=O)n3)cc2)CC1.Cl [TCMDC-134116]
Kd [1]: 994 nM and 870 nM | Kd [2]: 571 nM | Kd [3]: 16.4 nM and 25.9 nM
